The target of this assay is Human immunodeficiency virus type 1 reverse transcriptase (Human immunodeficiency virus 1, UniProt Q72547). Put plainly: Inhibition of polymerization in wild type HIV-1 RT with poly rC/dG12-18 template primer and [3H]dGTP.

Molecules are shown by their SMILES. Where only a bound is given, the exact number is not on record here.

Regarding `O=C(OC1COc2cc(O)cc(O)c2C1)c1cccc(O)c1` (stereo not drawn), the IC50 is more than 100 µM. In the case of `O=C(OC1COc2cc(O)cc(O)c2C1)c1cccc(O)c1O` (stereo not drawn), inhibition was half-maximal at 37.2 µM (IC50). Take `O=C(O[C@@H]1Cc2c(O)cc(O)cc2O[C@@H]1c1ccc(O)c(O)c1)c1cc(O)c(O)c(O)c1` [EPICATECHIN GALLATE]: the IC50 was 0.76 µM. On to `O=C(OCCC1COc2cc(O)c(O)cc2C1)c1ccc(O)c(O)c1O` (stereo not drawn), for which the IC50 amounted to 10.7 µM. Compound `O=C(OC1COc2cc(O)ccc2C1)c1ccc(O)c(O)c1O` (stereo not drawn) yielded an IC50 of 36.3 µM.

In the case of `O=C(OC1COc2cc(O)cc(O)c2C1)c1ccccc1` (stereo not drawn), the concentration for half-maximal inhibition (IC50) was more than 100 µM. In the case of `O=C(OC1COc2cc(O)cc(O)c2C1)c1ccc(O)cc1O` (stereo not drawn), the IC50 came to 96.3 µM. `O=C(O[C@@H]1Cc2c(O)cc(O)cc2O[C@@H]1c1cc(O)c(O)c(O)c1)c1cc(O)c(O)c(O)c1` [EPIGALOCATECHIN GALLATE] had an IC50 of 0.73 µM.

For the compound `O=C(OC1COc2ccccc2C1)c1ccc(O)c(O)c1O` (stereo not drawn), the concentration for half-maximal inhibition (IC50) is more than 100 µM.

In turn, `O=C(OC1COc2cc(O)cc(O)c2C1)c1ccc(O)c(O)c1O` (stereo not drawn) had an IC50 of 3.83 µM.

On to `O=C(OC1COc2cccc(O)c2C1)c1ccc(O)c(O)c1O` (stereo not drawn), for which the IC50 stood at 45.5 µM. In the case of `O=C(O)c1cc(O)c(O)c(O)c1` [GALLIC ACID], the IC50 was more than 100 µM. As to `Oc1cc(O)c2c(c1)O[C@H](c1ccc(O)c(O)c1)[C@H](O)C2` [(-)-EPICATECHIN], the IC50 is more than 100 µM.

For orientation: IC50 means the concentration that gives 50% inhibition. Low values mean greater potency in that assay, high ones weaker potency in that assay.

(Values after ChEMBL document CHEMBL1134703, “Simplified catechin-gallate inhibitors of HIV-1 reverse transcriptase” (Bioorg Med Chem Lett, 2001).)
